Reference: patent US20240361317A1, “PROBES BASED ON VOLATILE ORGANIC COMPOUNDS AND USES THEREOF FOR THE DIAGNOSIS AND PROGNOSIS OF PATHOLOGICAL CONDITIONS” (Centre National de la Recherche Scientifique, priority 2021, published 2024)
Each block holds one compound with its values, some of them ahead of it.

Legend:
β-D-galactosidase = molecular target: T1, β-D-galactosidase (Homo sapiens, UniProt P16278); experiment: Plasma protocol: labeled ethanol released in headspace of plasma after adding probe; format: biochemical; settings: for discernment between healthy patients and cancer patients: cocktail of 4 probes, plasma of breast and lung cancer patients vs 4 healthy
T1 construct: from tissue; host or cells: human blood plasma
T1 sequence (P16278 29-677): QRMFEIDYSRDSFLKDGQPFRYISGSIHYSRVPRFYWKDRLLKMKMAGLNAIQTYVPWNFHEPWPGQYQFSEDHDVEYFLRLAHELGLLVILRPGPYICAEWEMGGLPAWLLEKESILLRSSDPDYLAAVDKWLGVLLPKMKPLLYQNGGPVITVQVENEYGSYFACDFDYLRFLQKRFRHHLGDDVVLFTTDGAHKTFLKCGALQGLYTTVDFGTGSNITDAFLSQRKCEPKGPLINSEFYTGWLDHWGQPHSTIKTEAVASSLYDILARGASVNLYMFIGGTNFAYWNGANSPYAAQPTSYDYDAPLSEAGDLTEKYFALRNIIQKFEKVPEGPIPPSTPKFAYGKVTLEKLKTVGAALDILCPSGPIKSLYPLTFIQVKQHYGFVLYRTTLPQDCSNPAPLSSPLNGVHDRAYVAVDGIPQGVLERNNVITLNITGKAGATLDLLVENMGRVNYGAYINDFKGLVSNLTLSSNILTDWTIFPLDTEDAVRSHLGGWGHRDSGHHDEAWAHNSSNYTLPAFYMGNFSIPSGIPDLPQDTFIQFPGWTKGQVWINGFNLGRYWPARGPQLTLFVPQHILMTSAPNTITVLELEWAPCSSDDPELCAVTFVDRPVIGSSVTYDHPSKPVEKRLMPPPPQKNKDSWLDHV
Method: (§1) The plasma (approximately […]) is extracted and stored at −20° C. until analysis. An aliquot of 25 μL of plasma is sampled and inserted into a […] with an insert. This biological sample is added to 50 μL of acetate buffer solution (pH 5), protease inhibitor (1×) and 25 μL probe D5-ethyl-β-D-glucuronide at […]. After hermetic closure and agitation to the vortex of the vial, an SPME (SPME in semi-polar phase of the Car/PDMS, 1 cm long and 75 μm thick type with a 24 ga needle; Supelco) of the gas phase above the sample of a duration of 30 mi is carried out after 2 h, 4 h and 7 h of reaction. Each kinetic point requires a vial reaction, and is carried out in duplicate. The VOCs trapped on the SPME fiber are then analyzed by G-TQMS. GC-TMS detection of the ethanol isotopes (thus including ethanol-D5) is carried out with gas chromatography coupled to a triple quadrupole equipped with an E1 source (TSQ 9000, Thermo Fisher Scientific). The system is controlled by the software TSQ 9000 and the results are analyzed with the Xcalibur software (Thermo Fisher Scientific).
(§2) In order to verify the diagnostic efficacy of this cocktail, it was tested on samples of plasma taken from 4 patients suffering from breast cancer and 3 patients with lung cancer. These patients were diagnosed, but had at the time of sampling not yet received treatment suited to their pathological condition.
After adding the 4 probes (according to the above protocol), the quantity of the 4 isotopes of the ethanol released above the samples of the patients was measured over time. The responses of each isotope were compared with those obtained when the cocktail was added to plasmas of 4 healthy patients. An experimental blank was also carried out each day of analysis. […]
(§3) According to the plasma protocol described above, the probes were used to detect the six enzymatic activities in these samples. […] The VOCs trapped on the SPME fiber are then analyzed by GC-TQMS according to the parameters defined in Tables 4 and 5. […]

β-glucuronidase [1] = molecular target: T2, β-glucuronidase (Homo sapiens, UniProt P08236); experiment: as above; format: biochemical; settings: Ethanol-D5; Cocktail 1; 5·10^−4/5·10^−5 mol·L^−1; Splitless
T2 construct: from tissue; host or cells: human blood plasma
T2 sequence (P08236 23-651): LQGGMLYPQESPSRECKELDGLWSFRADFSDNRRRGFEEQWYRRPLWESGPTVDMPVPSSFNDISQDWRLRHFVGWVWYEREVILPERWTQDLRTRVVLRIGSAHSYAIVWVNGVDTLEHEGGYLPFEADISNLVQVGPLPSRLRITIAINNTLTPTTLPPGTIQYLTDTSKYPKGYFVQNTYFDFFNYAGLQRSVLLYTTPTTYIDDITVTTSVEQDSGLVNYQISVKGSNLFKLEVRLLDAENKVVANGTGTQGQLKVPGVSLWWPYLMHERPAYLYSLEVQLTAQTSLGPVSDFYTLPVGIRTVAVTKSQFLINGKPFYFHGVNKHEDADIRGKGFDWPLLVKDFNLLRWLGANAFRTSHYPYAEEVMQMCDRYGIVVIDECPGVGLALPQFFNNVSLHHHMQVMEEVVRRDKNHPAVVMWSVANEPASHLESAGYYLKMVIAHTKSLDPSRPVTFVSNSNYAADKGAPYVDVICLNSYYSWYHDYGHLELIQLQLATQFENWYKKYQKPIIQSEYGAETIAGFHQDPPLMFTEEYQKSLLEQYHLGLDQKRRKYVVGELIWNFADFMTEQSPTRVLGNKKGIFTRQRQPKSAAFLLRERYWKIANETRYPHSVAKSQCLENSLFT
Method: as §1
Blood samples were taken by the caregiver associated with the oncological service, then collected and pretreated with the CIC. This study included samples of plasma taken from 11 patients suffering from breast cancer and 11 patients suffering from lung cancer.
These patients were diagnosed, but had at the time of sampling not yet received treatment. Their response was compared to that obtained from the plasma of 4 healthy patients. The results were compared to an experimental blank wherein the probe was added, but the enzyme was not present (FIG. 3). […]
After adding the 4 probes (according to the above protocol), the quantity of the 4 isotopes of the ethanol released above the samples of the patients was measured over time. […]
as §3

N-acetyl-glucosaminidase = experiment: as above; format: biochemical, human
Method: as §1, §2
(§4) After adding the 4 probes (according to the above protocol), the quantity of the 4 isotopes of the ethanol released above the samples of the patients was measured over time. The responses of each isotope were compared with those obtained when the cocktail was added to plasmas of 4 healthy patients. An experimental blank was also carried out each day of analysis. These blanks correspond to negative controls wherein the cocktail was added, whereas none of the 4 enzymes was present therein (FIG. 9).
(§5) According to the plasma protocol described above, the probes were used to detect the six enzymatic activities in these samples. To summarize, an aliquot of 25 μL of plasma will be sampled and inserted into a 2 mL vial with an insert. This biological sample was added from 61.4 μL buffer solution (pH 5), 3.6 μL of protease inhibitor (1×) and 10 μL of one or the other of the cocktails. After hermetic closure and agitation to the vortex of the vial, an SPME (SPME in semi-polar phase of the Car/PDMS, 1 cm long and 75 μm thick type with a 24 ga needle, Supelco) of the gas phase above the sample of a duration of 30 min will be carried out after 2 h, 4 h and 7 h of reaction. Each kinetic point requires a vial reaction, and was carried out in duplicate. The VOCs trapped on the SPME fiber are then analyzed by GC-TQMS according to the parameters defined in Tables 4 and 5. […]

α-L-fucosidase = experiment: as above; format: biochemical, human
Method: as §1, §2, §4, §5

[2] = test system: KB tumors (tumor xenograft, tumor cells of the nasopharynx KB); experiment: In vivo test of cocktail of 4 probes: ethanol isotopes exhaled after i.v. injection; parameters: species or system mouse; settings: 15 days after implantation; 1 h after i.v. injection
Method: In the context of this study, the quantity of 4 expired isotopes by mouse models carrying a tumor xenograft (tumor cells of the nasopharynx KB; n=6) was compared to that exhaled by healthy animals (n=6) after i.v. injection of the cocktail.
The concentration of the 4 probes to be injected was determined beforehand according to a precise experimental plan having the objective of determining the amount of each probe inducing a minimum ethanol response in healthy animals (signal reaching a low or even zero basal level). In this context, the healthy animals received increasing doses of the 4 probes ([…] at 100 μg·kg^−1). The animals were then placed in a hermetic cage for 1 h. The amount of each ethanol isotope present in the breath of the animals was then measured for 30 min via an SPME sample, then a GC-TQMS analysis.
Once the i.v. doses are set, the cocktail was injected into healthy mice and diseased mice after 12 and then 15 days of implantation of the xenograft. The amount of the ethanol isotopes exhaled by the animals was measured 1 h after injection of the cocktail (FIG. 10). A negative control on two mice (healthy and diseased) was carried out. This control consisted of measuring the quantity of 4 isotopes of ethanol in the air surrounding the mice which had not received the cocktail. Ethanol-D5, ethanol-D4 and ethanol-^13CD5 were not detected. […]

β-glucuronidase [3] = molecular target: T2, β-glucuronidase; experiment: Reference method: hydrolysis of para-nitrophenol glucuronide, UV detection at 400 nm, on patient plasma; format: biochemical; settings: plasma of cancer and healthy patients
From the text: The limit of detection of the enzyme with the probe is between […] (signal to noise 9) and […] (signal to noise 37), which leads to a minimum quantity of detectable enzyme equal to 1.10^−18 mol. This LOD is 100 times lower than the threshold value obtained according to the reference detection method of this same enzyme (Li et al., 2018, Biotechnology Letters, 40, 11 1-118; Xiao et al., 2020, RSC Advances, 10, 22966). This method corresponds to the hydrolysis of para-nitrophenol glucuronide. It was carried out in acetate buffer […], followed by UV detection at 400 nm of the para-nitrophenol (FIG. 2).
Finally, these same plasma samples were tested with the reference method targeting […] (UV detection in the presence of para-nitrophenol; protocol described page 5).

β-glucuronidase [4] = molecular target: β-glucuronidase (Escherichia coli, UniProt P05804); experiment: Specificity study: hydrolysis of probes by the enzyme; format: biochemical
Chain of β-glucuronidase (Escherichia coli, UniProt P05804) (P05804 whole entry, the tested form may be a part): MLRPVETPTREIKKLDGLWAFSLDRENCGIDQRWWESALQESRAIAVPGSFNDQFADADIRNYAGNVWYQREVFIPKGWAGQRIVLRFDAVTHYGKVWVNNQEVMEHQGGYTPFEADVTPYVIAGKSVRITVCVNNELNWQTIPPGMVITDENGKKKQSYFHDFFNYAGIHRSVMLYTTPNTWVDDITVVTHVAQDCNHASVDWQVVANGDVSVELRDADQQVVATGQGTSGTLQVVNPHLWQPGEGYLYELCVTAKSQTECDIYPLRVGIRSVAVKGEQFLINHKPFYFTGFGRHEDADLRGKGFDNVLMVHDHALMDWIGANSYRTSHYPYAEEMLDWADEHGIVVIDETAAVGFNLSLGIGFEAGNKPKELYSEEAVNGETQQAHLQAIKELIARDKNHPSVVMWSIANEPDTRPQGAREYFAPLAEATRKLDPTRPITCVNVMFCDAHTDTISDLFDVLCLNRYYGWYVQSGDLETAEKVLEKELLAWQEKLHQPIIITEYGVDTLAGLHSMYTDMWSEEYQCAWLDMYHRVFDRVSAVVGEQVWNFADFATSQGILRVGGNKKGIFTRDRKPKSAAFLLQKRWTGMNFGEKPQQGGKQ
Method: (§6) The detection performances of this compound in the presence of ethanol and ethanol-D5 were then verified. […] The detection ranges of ethanol-D5 and ethanol-^13C-D5 were then carried out under SPME sampling conditions developed for biological samples (30 min of sampling at 30° C.). The two isotopes were present in mixtures in solution. The limits of detection obtained are respectively […]. The SPME-GC-TQMS method therefore allows a sharp differentiation of the two isotopes according to their mass fragmentation. An experimental study was then carried out in order to evaluate the affinity of the D5-ethyl-β-D-glucuronide and ^13C-D5-ethyl-N-acetylglucosamine for their respective enzyme (β-glucuronidase and N-acetyl glucosaminidase). For this, the efficacy of hydrolysis of each of these enzymes was studied in the presence of their respective probe (FIG. 6) then in the presence of the substrate probe of its partner (FIG. 7). […] In the presence of the two substrates, each enzyme gives a signal only for the probe specific to it (FIG. 8).

N-acetyl glucosaminidase = experiment: as above; format: biochemical
Method: as §6

Plasma response range (u.a.) (β-D-galactosidase; Ethanol-D2, Cocktail 1, 10^−3/10^−4 mol·L^−1, Splitless): 2000-16000 u.a.
Compound: CCC[C@@H]1C[C@H](CC)[C@H](C)[C@H](C)[C@H]1C

Compound: CCC[C@@H]1C[C@H](C(C)C)[C@@H](C)[C@H](C)[C@H]1C
Plasma response range (u.a.) (β-glucuronidase [1]): 1000-35000 u.a.

Plasma response range (u.a.) (N-acetyl-glucosaminidase; Ethanol-13CD5, Cocktail 2, 10^−3/10^−4 mol·L^−1, Split 1:15): 10000-300000 u.a.
Compound: C=C(C)C[C@@H]1[C@@H](CCC)C[C@H](CC)[C@@H](C)[C@@H]1C

Plasma response range (u.a.) (α-L-fucosidase; Ethanol-D4, Cocktail 3, 10^−3/10^−4 mol·L^−1, Splitless): 5000-230000 u.a.
Compound: CCC[C@@H]1C[C@H](C)[C@@H](C)[C@@H](C)[C@@H]1C

Compound: [2H]C([2H])(C)O[C@@H]1O[C@H](CO)[C@H](O)[C@H](O)[C@H]1O [D2-ethyl-β-D-galactopyranoside]
activation of probe in the microenvironment of KB (nasopharyngeal) tumors, release of ethanol isotope in exhaled air [2]: activated
discernment between healthy patients and cancer patients (β-D-galactosidase): does not make it possible to discern healthy patients from cancer patients
discernment between healthy patients and cancer patients (β-D-galactosidase; listed as D2-ethyl-β-d-galactopyranoside): does not make it possible to differentiate healthy patients from breast cancer or lung cancer patients

Compound: [2H]C(O[C@@H]1O[C@@H](C)[C@@H](O)[C@@H](O)[C@@H]1O)C([2H])([2H])[2H] (stereo partly drawn) [D4-ethyl-1-α-L-fucopyranoside]
discernment between healthy patients and cancer patients (α-L-fucosidase; cocktail of 4 probes, plasma of breast and lung cancer patients vs healthy): allow clear discernment between healthy patients and cancer patients

Compound: O=C(O)[C@H]1O[C@@H](Oc2ccc([N+](=O)[O-])cc2)[C@H](O)[C@@H](O)[C@@H]1O [para-nitrophenol glucuronide]
detection of the enzyme in the same plasma samples by the reference method (β-glucuronidase [3]): not detected in any of the samples

Compound: ^13C-D5-ethyl-N-acetylglucosamide [^13C-D5-ethyl-N-acetylglucosamine]
discernment between healthy patients and cancer patients (N-acetyl-glucosaminidase; cocktail of 4 probes, plasma of breast and lung cancer patients vs 4 healthy): allow clear discernment between healthy patients and cancer patients
hydrolysis of probe by β-glucuronidase (labeled ethanol signal) (β-glucuronidase [4]): does not hydrolysis
hydrolysis of probe by N-acetyl glucosaminidase (labeled ethanol signal) (N-acetyl glucosaminidase): has hydrolyzed its own probe
